Measured values taken from PubChem BioAssay AID1963858 (Molecular Pharmacology Branch, DTP, NCI, 2024).

Tested on: HOP-62 multicell spheroids with HUVEC/MSC, viability
Assay: Anticancer human tumor HOP-62 cell line growth inhibition [KRAS2];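 also: viability read after a week of compound exposure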;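 as to viability, T/C: 100% = DMSO vehicle-treated spheroids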
Conditions: for IC50: curve of first compound; for viability, T/C: stronger effect = lower value
How it was run: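 KRAS-mutant tumor cells were grown as spheroids with HUVEC endothelial cells and human MSCs as stroma. Targeted agents were tested alone and with KRAS pathway inhibitors. Doses started at or near clinical Cmax, or 10 microM, descending half-log.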

[1] = second compound 0.1 µM, first compound 0.0316 µM
[2] = second compound 0.1 µM, first compound 0.1 µM
[3] = second compound 0.1 µM, first compound 0.316 µM
[4] = second compound 0.1 µM, first compound 1 µM
[5] = second compound 0.316 µM, first compound 0.0316 µM
[6] = second compound 0.316 µM, first compound 0.1 µM
[7] = second compound 0.316 µM, first compound 0.316 µM
[8] = second compound 0.316 µM, first compound 1 µM
[9] = second compound 1 µM, first compound 0.0316 µM
[10] = second compound 1 µM, first compound 0.1 µM
[11] = second compound 1 µM, first compound 0.316 µM
[12] = second compound 1 µM, first compound 1 µM
[13] = second compound 3.16 µM, first compound 0.0316 µM
[14] = second compound 3.16 µM, first compound 0.1 µM
[15] = second compound 3.16 µM, first compound 0.316 µM
[16] = second compound 3.16 µM, first compound 1 µM

Row | SMILES | IC50 (second compound 0.1 µM) [nM] | IC50 (second compound 0.316 µM) [nM] | IC50 (second compound 1 µM) [nM] | IC50 (second compound 3.16 µM) [nM] | viability, T/C [1] [%] | viability, T/C [2] [%] | viability, T/C [3] [%] | viability, T/C [4] [%] | viability, T/C [5] [%] | viability, T/C [6] [%] | viability, T/C [7] [%] | viability, T/C [8] [%] | viability, T/C [9] [%] | viability, T/C [10] [%] | viability, T/C [11] [%] | viability, T/C [12] [%] | viability, T/C [13] [%] | viability, T/C [14] [%] | viability, T/C [15] [%] | viability, T/C [16] [%] | further results
1 | CC(C)NCC(C(=O)N1CCN(c2ncnc3c2C(C)CC3O)CC1)c1ccc(Cl)cc1 (stereo not given) + C=CC(=O)N1CCN(c2nc(OCC3CCCN3C)nc3c2CCN(c2cccc4cccc(C)c24)C3)CC1CC#N | 48 | < 31.6 | < 31.6 | < 31.6 | 55.9 | 39.7 | 16.1 | 9.65 | 39.4 | 29.7 | 15.2 | 9.41 | 29.8 | 21 | 14.1 | 7.91 | 0.51 | 0.35 | 0.44 | 0.32 | IC50 (second compound 0.0316 µM): 173 nM; viability, T/C (second compound 0.0316 µM, first compound 0.0316 µM): 76.8%; viability, T/C (second compound 0.0316 µM, first compound 0.1 µM): 57.4%; viability, T/C (second compound 0.0316 µM, first compound 0.316 µM): 42.4%; viability, T/C (second compound 0.0316 µM, first compound 1 µM): 18.6%; viability, T/C (second compound 0.0316 µM, first compound 3.16 µM): 8.82%; viability, T/C (second compound 0.0316 µM, first compound 10 µM): 6.71%; viability, T/C (second compound 0.1 µM, first compound 3.16 µM): 6.16%; viability, T/C (second compound 0.1 µM, first compound 10 µM): 5.4%; viability, T/C (second compound 0.316 µM, first compound 3.16 µM): 5.86%; viability, T/C (second compound 0.316 µM, first compound 10 µM): 5.37%; viability, T/C (second compound 1 µM, first compound 3.16 µM): 5.78%; viability, T/C (second compound 1 µM, first compound 10 µM): 5%; viability, T/C (second compound 3.16 µM, first compound 3.16 µM): 0.31%; viability, T/C (second compound 3.16 µM, first compound 10 µM): 0.41%
2 | CCN1CCN(Cc2ccc(Nc3ncc(F)c(-c4cc(F)c5nc(C)n(C(C)C)c5c4)n3)nc2)CC1 + COc1cc2nc(C)nc(NC(C)c3cc(N)cc(C(F)(F)F)c3)c2cc1OC1CCOC1 | 911 | 979 | 613 | 23.2 | 84.2 | 79.4 | 73.8 | 45.6 | 85.6 | 69.9 | 63.2 | 49.2 | 67.6 | 69.9 | 49.6 | 47.8 | 50.6 | 41.8 | 42.4 | 34.8 | IC50 (second compound 10 µM): < 3.16 nM; viability, T/C (second compound 0.1 µM, first compound 0.00316 µM): 102%; viability, T/C (second compound 0.1 µM, first compound 0.01 µM): 97%; viability, T/C (second compound 0.316 µM, first compound 0.00316 µM): 101%; viability, T/C (second compound 0.316 µM, first compound 0.01 µM): 93.5%; viability, T/C (second compound 1 µM, first compound 0.00316 µM): 80.8%; viability, T/C (second compound 1 µM, first compound 0.01 µM): 74.4%; viability, T/C (second compound 3.16 µM, first compound 0.00316 µM): 55.5%; viability, T/C (second compound 3.16 µM, first compound 0.01 µM): 52.9%; viability, T/C (second compound 10 µM, first compound 0.00316 µM): 49.9%; viability, T/C (second compound 10 µM, first compound 0.01 µM): 32.2%; viability, T/C (second compound 10 µM, first compound 0.0316 µM): 24.4%; viability, T/C (second compound 10 µM, first compound 0.1 µM): 21.9%; viability, T/C (second compound 10 µM, first compound 0.316 µM): 18.5%; viability, T/C (second compound 10 µM, first compound 1 µM): 0.89%
